Reference: ChEMBL document CHEMBL1126956, “Synthesis and biological evaluation of cholecystokinin analogs in which the Asp-Phe-NH2 moiety has been replaced by a 3-amino-7-phenylheptanoic acid or a 3-amino-6-(phenyloxy)hexanoic acid” (J Med Chem, 1993)
Where a SMILES comes first, the peptide text is derived from it. [ ]: non-standard residue; d: D form. The star is where a group is joined. sY = N[C@@H](Cc1ccc(OS(=O)(=O)O)cc1)C(=O)O; NHPhenethyl = c1ccc(CCN*)cc1; OCH2CH2Ph = c1ccc(CCO*)cc1; Nle = CCCC[C@H](N)C(=O)O; Boc = CC(C)(C)OC(=O)*

Key:
[1] = biological target: T1, Gastrin/cholecystokinin type B receptor (Homo sapiens, UniProt P32239); assay: Inhibition of [125I]BH-CCK- binding to cholecystokinin type B receptor from jurkat Tcells; type: cell-based
T1 sequence (P32239 whole entry): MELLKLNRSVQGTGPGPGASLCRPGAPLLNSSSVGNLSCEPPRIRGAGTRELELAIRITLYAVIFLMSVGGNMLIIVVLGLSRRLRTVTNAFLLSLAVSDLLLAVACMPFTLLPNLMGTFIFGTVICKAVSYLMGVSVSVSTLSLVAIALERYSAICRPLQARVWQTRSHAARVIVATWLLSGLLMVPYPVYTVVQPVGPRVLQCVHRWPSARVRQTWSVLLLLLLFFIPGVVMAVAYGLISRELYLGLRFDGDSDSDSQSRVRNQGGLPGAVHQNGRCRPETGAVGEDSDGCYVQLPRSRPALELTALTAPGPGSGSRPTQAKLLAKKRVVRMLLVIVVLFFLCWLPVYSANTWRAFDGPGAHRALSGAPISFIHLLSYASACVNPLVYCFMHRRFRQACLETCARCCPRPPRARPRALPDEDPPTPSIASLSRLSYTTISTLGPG

[2] = biological target: Gastrin/cholecystokinin type B receptor (Cavia porcellus); assay: Inhibition of [125I]BH-CCK- binding to cholecystokinin type B receptor from guinea pig brain membranes
[3] = biological target: Cholecystokinin receptor type A (Rattus norvegicus) (UniProt P30551); assay: Inhibition of [125I]BH-CCK- binding to peripheral cholecystokinin type A receptor from rat pancreatic acini

IC50 [1] [nM] | IC50 [2] [nM] | IC50 [3] [nM] | SMILES
210 |  |  | CCCC[C@H](NC(=O)[C@@H](Cc1c[nH]c2ccccc12)NC(=O)CNC(=O)[C@H](CCSC)NC(=O)[C@H](Cc1ccc(OS(=O)(=O)O)cc1)NC(=O)OC(C)(C)C)C(=O)N[C@@H](CC(=O)O)C(=O)OCCc1ccccc1
13 | 10 | 30 | CCCC[C@H](NC(=O)[C@H](Cc1ccc(OS(=O)(=O)O)cc1)NC(=O)OC(C)(C)C)C(=O)NCC(=O)N[C@@H](Cc1c[nH]c2ccccc12)C(=O)N[C@@H](CCCC)C(=O)N[C@@H](CC(=O)O)C(=O)NCCc1ccccc1 (Boc-[sY][Nle]GW[Nle]D-NHPhenethyl)
2 |  | 3 | CCCC[C@H](NC(=O)[C@H](Cc1ccc(OS(=O)(=O)O)cc1)NC(=O)OC(C)(C)C)C(=O)NCC(=O)N[C@@H](Cc1c[nH]c2ccccc12)C(=O)N[C@@H](CCCC)C(=O)N[C@@H](CC(=O)O)C(=O)OCCc1ccccc1 (Boc-[sY][Nle]GW[Nle]D-OCH2CH2Ph)
